Test results as given in patent US20260041753A1, “RESPIRATORY SYNCYTIAL VIRUS SURFACE GL[…], CONJUGATES, AND USES THEREOF” (Dana-Farber Cancer Institute, Inc., priority 2023, published 2026).
Where two headings read alike, the source gives them in different places. Where a SMILES comes first, the peptide text is derived from it. Bridges are numbered along the chain shown (N, C = ends). Primed or numbered codes have the meaning given here. Where no end group is shown, it is not given here. Side-chain parts run from the residue outwards. [ ]: non-standard residue; d: D form. The star is where a group is joined. ξ: configuration not given here. thiocholesterol = thiocholesterol moiety attached via the PEG4 linker to the lysine epsilon side chain, CC(C)CCC[C@@H](C)[C@H]1CC[C@H]2[C@@H]3CC=C4C[C@@H](S*)CC[C@]4(C)[C@H]3CC[C@]12C; Acetyl(2-S-cholesteryl) = CC(C)CCC[C@@H](C)[C@H]1CC[C@H]2[C@@H]3CC=C4C[C@@H](SCC(=O)*)CC[C@]4(C)[C@H]3CC[C@]12C; Acetyl(2-S-3ξ-cholesteryl) = CC(C)CCC[C@@H](C)[C@H]1CC[C@H]2[C@@H]3CC=C4CC(SCC(=O)*)CC[C@]4(C)[C@H]3CC[C@]12C; PEG20 = NCCOCCOCCOCCOCCOCCOCCOCCOCCOCCOCCOCCOCCOCCOCCOCCOCCOCCOCCOCCOCCC(=O)O; PEG16 = NCCOCCOCCOCCOCCOCCOCCOCCOCCOCCOCCOCCOCCOCCOCCOCCOCCC(=O)O; PEG4′ = 4x polyethylene glycol linker; R8 = C=CCCCCCC[C@@](C)(N)C(=O)O; PEG4 = NCCOCCOCCOCCOCCC(=O)O; S5 = C=CCCC[C@](C)(N)C(=O)O

Tests used:
[1] = tested on: live human Respiratory Syncytial Virus with Green Fluorescent Protein (RSV-GFP1); assay type: cell-based; conditions: for antiviral activity in the GFP-RSV live virus assay (staple and PEG scanning): dose of 2 μM, RSV-GFP in A549 cells after 48 hours (FIG. 15); for improvement in anti-viral activity compared to the singly stapled RSV HR2 peptide of SEQ ID NO: 4: versus single staple alone with an additional 6 HR2 amino acids at the C-terminus
Method: Antiviral Efficacy Assays: The efficiency of the peptide-cholesterol conjugates of the invention in preventing and treating infection of live human Respiratory Syncytial Virus with Green Fluorescent Protein (RSV-GFP1) are evaluated in monolayer cell cultures. A549 cells plated in 384-well format are treated for 30 min with a serial dilution of stapled peptides (e.g. 1-5 […] or a fixed dose, e.g. […]), performed in quadruplicate, followed by addition of GFP-RSV live virus assay (0.75-1.25 μL of virus per well) and incubation for 48-72 hours. Infected cells are then washed with PBS. Hoechst 33342 (cell permeable nuclear dye) and DRAQ7 (cell impermeable nuclear dye) are added and the plate imaged on a Molecular Devices ImageXpress Micro Confocal Laser at 4× magnification. GFP (+) cells are counted and total GFP(+) cells or percent GFP(+) cells are plotted using Prism software (Graphpad). Cytotoxicity is determined by the ratio of DRAQ7 (+) Hoechst 33342 (+) to DRAQ7 (−) Hoechst 33342 (+) cells.

[2] = Solubility of stapled lipopeptides in buffer (FIG. 18); assay type: physicochemical; conditions: 15 mg/mL in 15% DMSO, PBS pH 7.4
Method: Buffer conditions are 15 mg/mL in 15% DMSO, PBS pH 7.4.

[3] = pI of stapled lipopeptides; assay type: physicochemical
[4] = GFP-RSV live virus, A549 cells, read-out at 48 hours (FIGS. 13, 16, 17), read-out: IC50, antiviral activity in live RSV virus assay

Compound | antiviral activity in the GFP-RSV live virus assay (staple and PEG scanning) [1] | IC50 [1, 4] [nM] | improvement in anti-viral activity compared to the singly stapled RSV HR2 peptide of SEQ ID NO: 4 [1] | also measured
FDASISQVNEKINQSLAFI8KSDELLXNV* (FDASISQVNEKINQSLAFI[R8]KSDELL[S5]NVK([PEG4′-thiocholesterol]); staple 20-27 (inferred)) [SEQ ID NO: 24, * =Lys(epsilon-(PEG)4-thiocholesterol)] | potent activity |  |  | 
CC[C@H](C)[C@H](NC(=O)[C@H](CO)NC(=O)[C@H](C)NC(=O)[C@H](CC(=O)O)NC(=O)[C@H](Cc1ccccc1)NC(C)=O)C(=O)N[C@@H](CO)C(=O)N[C@@H](CCC(N)=O)C(=O)N[C@H](C(=O)N[C@@H](CC(N)=O)C(=O)N[C@@H](CCC(=O)O)C(=O)N[C@@H](CCCCN)C(=O)N[C@H](C(=O)N[C@@H](CC(N)=O)C(=O)N[C@@H](CCC(N)=O)C(=O)N[C@@H](CO)C(=O)N[C@@H](CC(C)C)C(=O)N[C@]1(C)CCCCCCC=CCCC[C@@](C)(C(=O)N[C@@H](CC(C)C)C(=O)N[C@@H](CC(C)C)C(=O)N[C@@H](Cc2c[nH]cn2)C(=O)N[C@@H](CC(N)=O)C(=O)N[C@H](C(=O)N[C@@H](CCCCNC(=O)CCOCCOCCOCCOCCNC(=O)CSC2CC[C@@]3(C)C(=CC[C@H]4[C@@H]5CC[C@H]([C@H](C)CCCC(C)C)[C@@]5(C)CC[C@@H]43)C2)C(N)=O)C(C)C)NC(=O)[C@H](CC(=O)O)NC(=O)[C@H](CO)NC(=O)[C@H](CCCCN)NC(=O)[C@H](CCCNC(=N)N)NC(=O)[C@H]([C@@H](C)CC)NC(=O)[C@H](Cc2ccccc2)NC1=O)[C@@H](C)CC)C(C)C (stereo partly drawn) [SEQ ID NO: 21, FDASISQVNEKINQSL8FIRKSDXLLHNV*] (Ac-FDASISQVNEKINQSL[R8]FIRKSD[S5]LLHNVK([PEG4-Acetyl(2-S-3ξ-cholesteryl)])-NH2; staple 17-24) |  |  |  | solubility [2]: visible pellet; solubility ([2]; listed as SEQ ID NO:21): Poor solubility
SDEFDASISQVNEKINQSL8FIRKSDXLLHNV* (SDEFDASISQVNEKINQSL[R8]FIRKSD[S5]LLHNV; staple 20-27; also: C-terminal linker-lipid (*), exact composition not fixed) [SEQ ID NO: 281] |  |  |  | solubility [2]: fully soluble; solubility ([2]; listed as SEQ ID NO:21 with three native N-terminal residues “SDE”): complete solubility; pI [3]: 4.7
8DASISQXNEKINQSLAFIRKSDELLHNV* ([R8]DASISQ[S5]NEKINQSLAFIRKSDELLHNVK([PEG4′-thiocholesterol]); staple 1-8) [SEQ ID NO: 6, * =Lys(epsilon-(PEG)4-thiocholesterol)] | potent activity |  |  | 
PEG20-thiochol SEQ IQ NO: 5: SEQ ID NO:51 with PEG(n)-thiocholesterol linked via a C-terminal lysine, n is 20 (FDXSISQVNXKINQSLAFIRKSDELLHNVK; not fully specified; C-terminal Lys-PEG20-thiocholesterol; SITE 3 (R)-alpha-(7'-octenyl)alanine; SITE 10 (S)-alpha-(4'-pentenyl)alanine; SITE 30 Residue attached to 20x polyethylene glycol thiocholesterol) |  | 60 | greater than two orders of magnitude | 
CC[C@H](C)[C@H](NC(=O)[C@H](Cc1ccccc1)NC(=O)[C@H](C)NC(=O)[C@H](CC(C)C)NC(=O)[C@H](CO)NC(=O)[C@H](CCC(N)=O)NC(=O)[C@H](CC(N)=O)NC(=O)[C@@H](NC(=O)[C@H](CCCCN)NC(=O)[C@]1(C)CCCC=CCCCCCC[C@@](C)(NC(=O)[C@H](CC(=O)O)NC(=O)[C@H](Cc2ccccc2)NC(C)=O)C(=O)N[C@@H](CO)C(=O)N[C@@H]([C@@H](C)CC)C(=O)N[C@@H](CO)C(=O)N[C@@H](CCC(N)=O)C(=O)N[C@@H](C(C)C)C(=O)N[C@@H](CC(N)=O)C(=O)N1)[C@@H](C)CC)C(=O)N[C@@H](CCCNC(=N)N)C(=O)N[C@@H](CCCCN)C(=O)N[C@@H](CO)C(=O)N[C@@H](CC(=O)O)C(=O)N[C@@H](CCC(=O)O)C(=O)N[C@@H](CC(C)C)C(=O)N[C@@H](CC(C)C)C(=O)N[C@@H](Cc1c[nH]cn1)C(=O)N[C@@H](CC(N)=O)C(=O)N[C@H](C(=O)N[C@@H](CCCCNC(=O)CCOCCOCCOCCOCCNC(=O)CS[C@H]1CC[C@@]2(C)C(=CC[C@H]3[C@@H]4CC[C@H]([C@H](C)CCCC(C)C)[C@@]4(C)CC[C@@H]32)C1)C(N)=O)C(C)C [SEQ ID NO: 5, FD8SISQVNXKINQSLAFIRKSDELLHNV*] (Ac-FD[R8]SISQVN[S5]KINQSLAFIRKSDELLHNVK([PEG4-Acetyl(2-S-cholesteryl)])-NH2; staple 3-10) | potent activity | 130 | an order of magnitude | IC50 ([1]; live RSV virus (FIG. 13), read-out: IC50, infectivity assay using live RSV virus): 130 nM
CC[C@H](C)[C@H](NC(=O)[C@H](CO)NC(=O)[C@H](C)NC(=O)[C@H](CC(=O)O)NC(=O)[C@H](Cc1ccccc1)NC(C)=O)C(=O)N[C@@H](CO)C(=O)N[C@@H](CCC(N)=O)C(=O)N[C@H](C(=O)N[C@@H](CC(N)=O)C(=O)N[C@@H](CCC(=O)O)C(=O)N[C@@H](CCCCN)C(=O)N[C@H](C(=O)N[C@@H](CC(N)=O)C(=O)N[C@@H](CCC(N)=O)C(=O)N[C@@H](CO)C(=O)N[C@@H](CC(C)C)C(=O)N[C@]1(C)CCCCCCC=CCCC[C@@](C)(C(=O)N[C@@H](CC(C)C)C(=O)N[C@@H](CC(C)C)C(=O)N[C@@H](Cc2c[nH]cn2)C(=O)N[C@@H](CC(N)=O)C(=O)N[C@H](C(=O)N[C@@H](CCCCNC(=O)CCOCCOCCOCCOCCOCCOCCOCCOCCOCCOCCOCCOCCOCCOCCOCCOCCOCCOCCOCCOCCNC(=O)CS[C@H]2CC[C@@]3(C)C(=CC[C@H]4[C@@H]5CC[C@H]([C@H](C)CCCC(C)C)[C@@]5(C)CC[C@@H]43)C2)C(N)=O)C(C)C)NC(=O)[C@H](CC(=O)O)NC(=O)[C@H](CO)NC(=O)[C@H](CCCCN)NC(=O)[C@H](CCCNC(=N)N)NC(=O)[C@H]([C@@H](C)CC)NC(=O)[C@H](Cc2ccccc2)NC1=O)[C@@H](C)CC)C(C)C [PEG20-thichol SEQ ID NO: 21] (Ac-FDASISQVNEKINQSL[R8]FIRKSD[S5]LLHNVK([PEG20-Acetyl(2-S-cholesteryl)])-NH2; staple 17-24) |  | 8.2 |  | 
PEG16-thiochol SEQ IQ NO: 5: SEQ ID NO:51 with PEG(n)-thiocholesterol linked via a C-terminal lysine, n is 16 (FDXSISQVNXKINQSLAFIRKSDELLHNVK; not fully specified; C-terminal Lys-PEG16-thiocholesterol; SITE 3 (R)-alpha-(7'-octenyl)alanine; SITE 10 (S)-alpha-(4'-pentenyl)alanine; SITE 30 Residue attached to 16x polyethylene glycol thiocholesterol) |  | 49 | greater than two orders of magnitude | 
CC[C@H](C)[C@H](NC(=O)[C@H](CO)NC(=O)[C@H](C)NC(=O)[C@H](CC(=O)O)NC(=O)[C@H](Cc1ccccc1)NC(C)=O)C(=O)N[C@@H](CO)C(=O)N[C@@H](CCC(N)=O)C(=O)N[C@H](C(=O)N[C@@H](CC(N)=O)C(=O)N[C@@H](CCC(=O)O)C(=O)N[C@@H](CCCCN)C(=O)N[C@H](C(=O)N[C@@H](CC(N)=O)C(=O)N[C@@H](CCC(N)=O)C(=O)N[C@@H](CO)C(=O)N[C@@H](CC(C)C)C(=O)N[C@]1(C)CCCCCCC=CCCC[C@@](C)(C(=O)N[C@@H](CC(C)C)C(=O)N[C@@H](CC(C)C)C(=O)N[C@@H](Cc2c[nH]cn2)C(=O)N[C@@H](CC(N)=O)C(=O)N[C@H](C(=O)N[C@@H](CCCCNC(=O)CCOCCOCCOCCOCCOCCOCCOCCOCCOCCOCCOCCOCCOCCOCCOCCOCCNC(=O)CS[C@H]2CC[C@@]3(C)C(=CC[C@H]4[C@@H]5CC[C@H]([C@H](C)CCCC(C)C)[C@@]5(C)CC[C@@H]43)C2)C(N)=O)C(C)C)NC(=O)[C@H](CC(=O)O)NC(=O)[C@H](CO)NC(=O)[C@H](CCCCN)NC(=O)[C@H](CCCNC(=N)N)NC(=O)[C@H]([C@@H](C)CC)NC(=O)[C@H](Cc2ccccc2)NC1=O)[C@@H](C)CC)C(C)C [PEG16-thiochol SEQ ID NO: 21] (Ac-FDASISQVNEKINQSL[R8]FIRKSD[S5]LLHNVK([PEG16-Acetyl(2-S-cholesteryl)])-NH2; staple 17-24) |  | 18 |  | 
FDASISQVN8KINQSLXFIRKSDELLHNV* (FDASISQVNXKINQSLXFIRKSDELLHNVK; not fully specified; Lys(epsilon-(PEG)4-thiocholesterol); non-natural residues 8, X; SITE 10 (R)-alpha-(7'-octenyl)alanine; SITE 17 (S)-alpha-(4'-pentenyl)alanine; SITE 30 Residue side chain modified at the epsilon carbon with 4x polyethylene glycol attached to thiocholesterol) [SEQ ID NO: 14] | potent activity |  |  | 
